According to US20260284066A1, “TYK2 INHIBITORS AND COMPOSITIONS AND METHODS THEREOF” (LYNK PHARMACEUTICALS CO. LTD., priority 2023, published 2026):
Converted amounts (≈) assume the structure as drawn. Like-named read-outs stand apart in the source and are kept apart here.

Tests used:
[1] = molecular target: T1, JAK1-JH2 domain (Homo sapiens, UniProt P23458); test: Binding activity test for JAK1 JH2 domain (Tb-antibody/tracer FRET)
T1 construct: JAK1-JH2 domain or TYK2-JH2 domain enzyme
Description: Binding Activity test for JH2 domain of JAK and TYK2
75 nL DMSO for high control and low control.
For low control, add 5 μL/well assay buffer. […] After enzyme system prepared, add 5 μL of Tb-antibody solution into each wells of assay plate. […] After Tb-antibody added, also add 5 μL of tracer into the assay plate. […] Incubate for 60 mins at 25° C. firstly and then continue to incubate the plate at 4° C. overnight. Read by envision in FRET mode. The Luminescence value was recorded by a multi-label reader Envision (PerkinElmer). Inhibition Rate was calculated relative to vehicle (DMSO) treated control wells using following formula:
wherein • RLU_compound=the relative light unit of cells treated with test compounds • RLU_low control=the relative light unit of medium with DMSO only • RLU_high control=the relative light unit of cells treated with DMSO only

[2] = molecular target: T2, TYK2-JH2 domain (Homo sapiens, UniProt P29597); test: Binding activity test for TYK2 JH2 domain (Tb-antibody/tracer FRET); conditions: for JAK1/TYK2 selectivity: ratio of JAK1 JH2 to TYK2 JH2 binding IC50
T2 construct: JAK1-JH2 domain or TYK2-JH2 domain enzyme
T2 sequence (P29597 589-875 limits assumed): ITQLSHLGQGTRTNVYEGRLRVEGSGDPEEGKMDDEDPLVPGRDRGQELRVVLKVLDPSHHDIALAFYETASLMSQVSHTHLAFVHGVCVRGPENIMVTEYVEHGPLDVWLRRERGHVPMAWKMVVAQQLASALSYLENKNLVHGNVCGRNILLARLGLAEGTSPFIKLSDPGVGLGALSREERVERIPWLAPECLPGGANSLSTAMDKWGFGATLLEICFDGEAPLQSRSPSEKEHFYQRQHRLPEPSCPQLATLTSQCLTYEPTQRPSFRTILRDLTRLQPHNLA

[3] = Microsomal metabolic stability assay; format: in vitro ADME, human; conditions: human, liver microsomes, pH 7.4, human liver microsomes 0.5 mg/mL; for microsomal CLint at 1 µM: read-out: Human LM Clint; for half-life at 1 µM: read-out: Human LM T½
Description: Microsomal Metabolic Stability Assay
Microsomes were pre-incubated with test compound or control compounds for 5 min at 37° C. in 100 mM potassium phosphate buffer, pH 7.4, 1.0 mM EDTA. The reaction was initiated by addition of 15 μL of the NADPH regenerating system to 30 μL of each incubation mixture per time point. The final incubation condition was composed of 0.5 mg/mL microsomal protein, 1 μM test article/positive control, 2 mM NADPH. The 0-minute samples were prepared by addition of a 30 μL aliquot of each incubation mixture to 135 μL quench reagent to precipitate proteins. And then a 15 μL aliquot of the NADPH regenerating system was added. At 5, 15, 30 and 45 minutes, the reaction will be stopped by the addition of cold acetonitrile solution containing internal standard. The samples taken at all time points were centrifuged at 5000×g for 15 minutes. 50 μL of supernatant are taken into 96-well assay plates pre-added with 50 μL ultrapure water, and then analyzed by LC/MS/MS.
Concentrations of test articles, control compounds in the samples were determined by using LC/MS/MS method. Plotting of the chromatograms and peak area integrations are carried out by Analyst (AB Sciex).
In the determination of the in vitro elimination constant (ke) of the control compounds, the analyte/internal standard peak area ratios will be converted to percentage remaining (% Remaining) with the following equation:
The CLint of microsomes was calculated using the formula: CLint (mic)=0.693/T1/2/mg microsome protein per mL. The slope was measured by the natural logarithm of the percentage of the residual compound and time, T1/2 was calculated according to the following formula.

[4] = Kinetic solubility; format: physicochemical; conditions: aqueous buffer, 100 mM pH 7.4 phosphate buffer, 1% DMSO, room temperature, read-out: Kinetics Solubility_PBS7.4
Description: Aliquots of 8 μL of reference and test compound stock solutions (10 mM/5 mM) are added into 792 μL of 100 mM pH 7.4 phosphate buffer. The final DMSO concentration is 1%. Sample tubes are shaken for 2 hours at 1000 rpm at room temperature. Samples are centrifuged at 12000 rpm for 10 min to precipitate un-dissolved particles. And transfer the supernatants to a new tube or plate. Add 5 μL of samples (no diluted, 10 times diluted and 100 times diluted) and standard curve samples to 95 μL of ACN containing IS for LC-MS/MS analysis.

[5] = read-out: JAK1 JH2 Binding IC50
[6] = read-out: TYK2 JH2 Binding IC50

T1 sequence (P23458 583-855 limits assumed): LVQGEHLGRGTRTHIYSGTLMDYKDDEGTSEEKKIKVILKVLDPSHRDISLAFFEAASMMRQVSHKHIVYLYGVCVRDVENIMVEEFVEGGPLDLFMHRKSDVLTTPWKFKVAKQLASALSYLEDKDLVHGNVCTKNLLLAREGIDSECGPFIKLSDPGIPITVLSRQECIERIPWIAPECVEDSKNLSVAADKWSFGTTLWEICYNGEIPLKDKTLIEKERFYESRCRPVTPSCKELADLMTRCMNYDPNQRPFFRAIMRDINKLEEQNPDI

COC(=O)c1cnc(NC(=O)C2CC2)cc1Nc1ncn2ncc(C#N)c2c1OC [Example 19, Methyl 4-((3-cyano-4-methoxypyrazolo[1,5-c]pyrimidin-5-yl)amino)-6-(cyclopropanecarboxamido)nicotinate]
IC50 [1, 5]: 22.1 nM | JAK1/TYK2 selectivity [2]: 13.51 | IC50 [2, 6]: 1.63 nM

CCC(=O)c1cnc(NC(=O)C2CC2)cc1Nc1ccc2cn[nH]c2c1OC [Example 34, N-(4-((7-methoxy-1H-indazol-6-yl)amino)-5-propionylpyridin-2-yl)cyclopropanecarboxamide]
microsomal CLint at 1 µM [3]: 480 µL/min/mg | half-life at 1 µM [3]: 2.89 min | IC50 [1, 5]: 31.7 nM | JAK1/TYK2 selectivity [2]: 8.0 | IC50 [2, 6]: 3.94 nM

[2H]C([2H])([2H])NC(=O)c1cnc(Nc2ccc(N3CCOCC3)cn2)cc1Nc1ccn2ncc(C#N)c2c1OC [Example 6, 4-((3-Cyano-4-methoxypyrazolo[1,5-a]pyridin-5-yl)amino)-N-(methyl-d3)-6-((5-morpholinopyridin-2-yl)amino)nicotinamide]
microsomal CLint at 1 µM [3]: 28.4 µL/min/mg | half-life at 1 µM [3]: 48.8 min | IC50 [1, 5]: 0.703 nM | JAK1/TYK2 selectivity [2]: 4.48 | IC50 [2, 6]: 0.157 nM

[2H]C([2H])([2H])NC(=O)c1cnc(Nc2ccc(F)cn2)cc1Nc1ncc2cnn(CC(C)(F)F)c2c1OC [Example 21, 4-((1-(2,2-Difluoropropyl)-7-methoxy-1H-pyrazolo[4,3-c]pyridin-6-yl)amino)-6-((5-fluoropyridin-2-yl)amino)-N-(methyl-d3)nicotinamide]
microsomal CLint at 1 µM [3]: 16.3 µL/min/mg | half-life at 1 µM [3]: 84.8 min | IC50 [1, 5]: 140 nM | JAK1/TYK2 selectivity [2]: 353.07 | IC50 [2, 6]: 0.396 nM

[2H]C([2H])([2H])NC(=O)c1cnc(NC(=O)NC)cc1Nc1ncc2cnn(CC(C)(F)F)c2c1OC [Example 33, 4-((1-(2,2-Difluoropropyl)-7-methoxy-1H-pyrazolo[4,3-c]pyridin-6-yl)amino)-N-(methyl-d3)-6-(3-methylureido)nicotinamide]
IC50 [1, 5]: > 298 nM | JAK1/TYK2 selectivity [2]: >139.8 | IC50 [2, 6]: 2.14 nM

[2H]C([2H])([2H])NC(=O)c1cnc(NC(=O)C2CC2)cc1Nc1ccc2ncn(CC(C)(F)F)c2c1OC [Example 31, 6-(Cyclopropanecarboxamido)-4-((1-(2,2-difluoropropyl)-7-methoxy-1H-benzo[d]imidazol-6-yl)amino)-N-(methyl-d3)nicotinamide]
IC50 [1, 5]: 20.8 nM | JAK1/TYK2 selectivity [2]: 69.3 | IC50 [2, 6]: 0.3 nM

[2H]C([2H])([2H])NC(=O)c1cnc(NC(=O)NCC)cc1Nc1ncc2cnn(CC(C)(F)F)c2c1OC [Example 32, 4-((1-(2,2-Difluoropropyl)-7-methoxy-1H-pyrazolo[4,3-c]pyridin-6-yl)amino)-6-(3-ethylureido)-N-(methyl-d3)nicotinamide]
IC50 [1, 5]: > 298 nM | JAK1/TYK2 selectivity [2]: >175.4 | IC50 [2, 6]: 1.7 nM

[2H]C([2H])([2H])NC(=O)c1cnc(Nc2ccc(N3CCOCC3)cn2)nc1Nc1ccn2ncc(C#N)c2c1OC [Example 7, 4-((3-Cyano-4-methoxypyrazolo[1,5-a]pyridin-5-yl)amino)-N-(methyl-d)-2-((5-morpholinopyridin-2-yl)amino)pyrimidine-5-carboxamide]
microsomal CLint at 1 µM [3]: 28.1 µL/min/mg | half-life at 1 µM [3]: 49.3 min | IC50 [1, 5]: 10.7 nM | JAK1/TYK2 selectivity [2]: 26.60 | IC50 [2, 6]: 0.404 nM

[2H]C([2H])([2H])NC(=O)c1cnc(NC(=O)[C@@H]2C[C@@H]2F)cc1Nc1ncc2cnn(CC(C)(F)F)c2c1OC [Example 8, 4-((1-(2,2-Difluoropropyl)-7-methoxy-1H-pyrazolo[4,3-c]pyridin-6-yl)amino)-6-((1S,2S)-2-fluorocyclopropane-1-carboxamido)-N-(methyl-d3)nicotinamide]
IC50 [1, 5]: 162 nM | JAK1/TYK2 selectivity [2]: 561.99 | IC50 [2, 6]: 0.288 nM

[2H]C([2H])([2H])NC(=O)c1cnc(NC(=O)C2CC2)cc1Nc1ncc2cnn(COCC[Si](C)(C)C)c2c1OC [Example 1, 6-(Cyclopropanecarboxamido)-4-((7-methoxy-1-((2-(trimethylsilyl)ethoxy)methyl)-1H-pyrazolo[4,3-c]pyridin-6-yl)amino)-N-(methyl-d3)nicotinamide]
IC50 ([1]; JAK1 JH2 Binding IC50(nM)): > 298 nM | IC50 ([2]; TYK2 JH2 Binding IC50(nM)): 9.31 nM | JAK1/TYK2 selectivity [2]: >32.07

[2H]C([2H])([2H])NC(=O)c1cnc(NC(=O)C2CC2)nc1Nc1ncc2cnn(CC(C)(F)F)c2c1OC [Example 28, 2-(Cyclopropanecarboxamido)-4-((1-(2,2-difluoropropyl)-7-methoxy-1H-pyrazolo[4,3-c]pyridin-6-yl)amino)-N-(methyl-d3)pyrimidine-5-carboxamide]
solubility kinetic at 2 h [4]: 20.6 µM (≈ 9.55 µg/mL) | IC50 [1, 5]: > 298 nM | IC50 [2, 6]: > 298 nM

[2H]C([2H])([2H])NC(=O)c1cnc(NC(=O)C2CC2)cc1Nc1ncn2ncc(C(O)C(F)(F)F)c2c1OC (stereo not shown) [Example 30, 6-(Cyclopropanecarboxamido)-4-((4-methoxy-3-(2,2,2-trifluoro-1-hydroxyethyl)pyrazolo[1,5-c]pyrimidin-5-yl)amino)-N-(methyl-d3)nicotinamide]
IC50 [1, 5]: 110 nM | JAK1/TYK2 selectivity [2]: 822.4 | IC50 [2, 6]: 0.134 nM

[2H]C([2H])([2H])NC(=O)c1cnc(NC(=O)C2CC2)cc1Nc1ncc2ccn(CC)c2c1OC [Example 18, 6-(Cyclopropanecarboxamido)-4-((1-ethyl-7-methoxy-1H-pyrrolo[3,2-c]pyridin-6-yl)amino)-N-(methyl-d3)nicotinamide]
solubility kinetic at 2 h [4]: 41.5 µM (≈ 17.1 µg/mL) | IC50 [1, 5]: 4.09 nM | JAK1/TYK2 selectivity [2]: 83.55 | IC50 [2, 6]: 0.049 nM

[2H]C([2H])([2H])NC(=O)c1cnc(NC(=O)[C@H]2C[C@H]2F)cc1Nc1ncc2cnn(CC(C)(F)F)c2c1OC [Example 11, 4-((1-(2,2-Difluoropropyl)-7-methoxy-1H-pyrazolo[4,3-c]pyridin-6-yl)amino)-6-((1R,2R)-2-fluorocyclopropane-1-carboxamido)-N-(methyl-d3)nicotinamide]
microsomal CLint at 1 µM [3]: 2.86 µL/min/mg | half-life at 1 µM [3]: 485 min | IC50 [1, 5]: 73.8 nM | JAK1/TYK2 selectivity [2]: 227.16 | IC50 [2, 6]: 0.325 nM

[2H]C([2H])([2H])NC(=O)c1cnc(NC(=O)C2CC2)cc1Nc1ncc2ncn(CC(F)(F)F)c2c1OC [Example 25, 6-(Cyclopropanecarboxamido)-4-((7-methoxy-1-(2,2,2-trifluoroethyl)-1H-imidazo[4,5-c]pyridin-6-yl)amino)-N-(methyl-d3)nicotinamide]
IC50 [1, 5]: 46.7 nM | JAK1/TYK2 selectivity [2]: 268.51 | IC50 [2, 6]: 0.174 nM

[2H]C([2H])([2H])NC(=O)c1cnc(NC(=O)[C@@H]2C[C@@H]2F)cc1Nc1ncn2ncc(C(C)C(F)(F)F)c2c1OC (stereo partly drawn) [Example 13, 6-((1S,2S)-2-fluorocyclopropane-1-carboxamido)-4-((4-methoxy-3-(1,1,1-trifluoropropan-2-yl)pyrazolo[1,5-c]pyrimidin-5-yl)amino)-N-(methyl-d3)nicotinamide]
microsomal CLint at 1 µM [3]: 25.4 µL/min/mg | half-life at 1 µM [3]: 54.5 min | IC50 [1, 5]: > 298 nM | JAK1/TYK2 selectivity [2]: >175.38 | IC50 [2, 6]: 1.7 nM

COC(=O)c1cnc(NC(=O)C2CC2)cc1Nc1ncc2cnn(CC(C)(F)F)c2c1OC [Example 26, Methyl 6-(cyclopropanecarboxamido)-4-((1-(2,2-difluoropropyl)-7-methoxy-1H-pyrazolo[4,3-c]pyridin-6-yl)amino)nicotinate]
IC50 [1, 5]: 115 nM | JAK1/TYK2 selectivity [2]: 443.32 | IC50 [2, 6]: 0.26 nM
